According to patent US9115345B2, “MicroRNA induction of pluripotential stem cells and uses thereof” (The Trustees Of The University Of Pennsylvania, priority 2010, dated 2015):
Entries after “also recorded” stand apart in the source; their conditions may differ.

Key:
[1] = test system: human foreskin and dermal fibroblasts; experiment: Reprogramming of human fibroblasts: colonies with human ES like morphology; format: cell-based
Protocol: (§1) Mouse fibroblasts were isolated from Oct4-GFP, Rosa26-LacZ and Hdac2^flax/flax embryos at E13.5 and cultured in fibroblast medium as described (Takahashi et al., 2007). Hdac2 was excised by infection of Hdac2^flax/flax MEFs with adeno-cre virus. Human dermal fibroblast were cultured in DMEM/F12, 15% FBS, penicillin/streptomycin and L-glutamine. Viral particles were generated by transfection of plated 293T cells with pLOVE vectors encoding miR302/367, Oct4, Sox2, Klf4, or N-myc along with pMD.G and psPAX2 vectors as described (Blelloch et al., 2007). Supernatant from the transfected cells were collected every 24 hr for 48 hrs and titered. The titered viral suspension was mixed with 0.5 μl (0.1 of 10 μg/mL polybrene (American Bioanalytical, MA) per milliliter of viral suspension and used to infect fibroblasts. After viral infection, mouse fibroblast were cultured in mouse ES medium supplemented with or without valproic acid at a final concentration of 2 mM for the indicated length of time. Infected human fibroblast were culture in human ES medium as described (Huangfu et al., 2008a; Takahashi et al., 2007).

Hdac1 = experiment: Western blot for Hdac1 in MEFs; format: cell-based, mouse; conditions: MEFs during miR302/367 reprogramming
Protocol: (§2) Total cell lysates were prepared for Western blotting as previously described (Trivedi et al., 2008). Equal amounts of protein were resolved by SDS-PAGE and transferred to polyvinylidenedifluoride membranes. Membranes were incubated with Hdac1 antibody (1:1000 dilution, Cell Signaling), Hdac2 antibody (1:1000 dilution, Invitrogen) or Hdac3 antibody (1:1000 dilution, Sigma). Primary antibody binding was visualized by HRP-conjugated secondary antibody and detected by enhanced chemiluminescence (LumiGlo, Cell Signaling). For loading control, membranes were reprobed with primary antibody against GAPDH (1:2500 dilution, Abeam).

Hdac2 = experiment: Western blot for Hdac2 in MEFs; format: cell-based, mouse; conditions: MEFs during miR302/367 reprogramming
Protocol: as §2

Hdac3 = experiment: Western blot for Hdac3 in MEFs; format: cell-based, mouse; conditions: MEFs during miR302/367 reprogramming
Protocol: as §2

MEFs = experiment: CellTiter proliferation assay for MEFs; format: cell-based, mouse; conditions: wild-type and Hdac2-/- MEFs
Protocol: Proliferation assays for MEFs were performed using the CellTiter 96 Aqueous One Solution Cell Proliferation kit (Promega, Inc.). 20 μl of CellTiter Reagent, which functions by being incorporated by viable cells into a colorimetric product that can be measured at 490 nm, was added to 100 μL of culture medium, incubated at 37° C. […] absorbance was measured at 490 nm at 1.5 hours, 2.5 hours, and 4.5 hours.

Hdac2-/- MEFs = experiment: miR302/367 reprogramming of Hdac2-/- MEFs; format: cell-based, mouse; conditions: Hdac2-/- MEFs transduced with miR302/367
Protocol: as §1
The Hdac2p^flox/flox allele was generated by flanking exon 2 with loxP recombination sites using the targeting vector depicted in FIG. 19A. […]

Oct4-GFP MEFs = experiment: iPS reprogramming of Oct4-GFP MEFs: clones with ES like morphology and Oct4-GFP positive clones; format: cell-based, mouse; conditions: day 10 of reprogramming; culture up to three weeks
Protocol: as §1

For `CCCC(CCC)C(=O)O` [VPA, valproic acid], the “requirement for and effect of VPA on reprogramming human fibroblasts by miR302/367” value [1] was “not required; also recorded: did not affect the efficiency of reprogramming”, the “Hdac1 protein expression level” value (Hdac1) was “unchanged” and the Hdac2 protein level (Hdac2) was “caused degradation of Hdac2 protein”. For the same molecule, the “Hdac3 protein expression level” value (Hdac3) was “unchanged”, the “proliferation rates in MEFs” value (MEFs) was “did not affect proliferation rates” and the “effect of VPA addition on number of iPS cell clones” value (Hdac2-/- MEFs) was “did not change the number of iPS cell clones”.
In the case of “miR367: miR367 expressed alone; sequence AAUUGCACUUUAGCAAUGGUGA (SEQ ID NO: 8) (listed as Homo sapiens)”, the “iPS cell colony generation in MEFs” value (Oct4-GFP MEFs) is reported as “did not reprogram fibroblasts”.
